“Also recorded” adds a separate entry of the source.
What was measured:
[1] = test system: β1- and β2-adrenergic receptors; settings: cited from earlier work
[2] = molecular target: T1, SOX18 (Homo sapiens, UniProt P35713); settings: cited from earlier work
T1 sequence (P35713 1-384): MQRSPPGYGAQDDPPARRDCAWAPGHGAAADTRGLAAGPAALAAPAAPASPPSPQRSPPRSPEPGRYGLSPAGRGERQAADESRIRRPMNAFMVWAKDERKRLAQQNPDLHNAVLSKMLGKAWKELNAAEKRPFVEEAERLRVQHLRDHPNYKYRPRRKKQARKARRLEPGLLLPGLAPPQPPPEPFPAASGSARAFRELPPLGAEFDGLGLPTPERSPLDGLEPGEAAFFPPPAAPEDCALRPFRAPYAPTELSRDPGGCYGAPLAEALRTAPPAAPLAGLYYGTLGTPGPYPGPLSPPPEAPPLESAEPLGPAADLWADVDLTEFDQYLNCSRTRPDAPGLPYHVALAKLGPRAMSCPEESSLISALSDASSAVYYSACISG

[3] = test system: MVP genes (HMGCS1, HMGCR, MVK, ABCA1); experiment: Mevalonate pathway (MVP) gene transcripts in differentiating HemSC, bulk RNA-seq and qPCR; format: cell-based, human; settings: for transcripts encoding MVP enzymes (incl. HMGCR, HMGCS1, MVK), RNA-seq: 20 μM, 2 hours, Day 6 of differentiation, hydrochloride
[4] = test system: cholesterol biosynthesis in HUVEC; experiment: Endogenous cholesterol in cholesterol-depleted HUVEC by mass spectrometry; format: cell-based, human; settings: 16 hours
Protocol: Cell culture: HUVECs were grown in EBM-2 media (Lonza, CC-3156) and supplemented with EGM-2 bullet kit (Lonza, CC-3162). HUVECs were seeded on 0.5% gelatin-coated 6-well plates at a density of 1.5×10^5 cells/well for overnight.
Methyl-β-cyclodextrin treatment: The day after cell seeding cells were treated with, (MBCD, Sigma #C4555) at a concentration of 2.5 mM to ensure a similar level of endogenous cholesterol among the groups. The treatment with MBCD was completely withdrawn after 4 hours by discarding the media and washed the cells with PBS. […] Cells were then washed with PBS and trypsinized. Following trypsinization cells were washed with PBS and centrifuged (FIG. 4B, 4C).
Cholesterol measurement using Targeted Mass Spectrometry: Lipids were extracted from the cell pellets through one-phase extraction with 202 μL of BuOH: MeOH (1:1) (Sigma #71-36-3 and #67-56-1) that contains […] of cholesterol-d7 (Cayman Chemical #83199-47-7) as the internal standard. The cholesterol analysis was performed on a Thermo Fisher TSQ Altis triple quadrupole mass spectrometer, operated in positive ion mode, coupled to a Vanquish UHPLC system (Thermo Fisher, Waltham, USA) using the transition from precursor mass of m/z 369.3516 (MS1) to m/z 161.1 (MS3) for cholesterol and 376.4 to 161.1 for cholesterol-d7 [REF]. […]

[5] = test system: SREBP2; experiment: Western blot of SREBP2 in HemSC undergoing endothelial differentiation; format: cell-based, human; settings: 2 hours on Day 6 of differentiation, hydrochloride
Protocol: (§1) Cells were lysed in a RIPA-based lysis buffer (25 mM Tris HCl pH 7.6, 150 mM NaCl, 1% NP-40, 1% sodium deoxycholate, 0.1% SDS) with protease and phosphatase inhibitors (Cell Signaling Technology). Cell extracts were electrophoresed by sodium dodecyl sulfate-polyacrylamide gel electrophoresis (SDS-PAGE), transferred to nitrocellulose or to polyvinylidene difluoride (PDVF) and probed with SOX18 D-8 (Santa Cruz Biotechnology) or SREBP2 clone 22D5 (MilliporeSigma) and GAPDH (Cell Signaling Technology). All signals were detected by enhanced chemiluminescence. The densitometric analysis was conducted by using Fiji ImageJ software.

[6] = test system: SREBP2; experiment: SOX18 shRNA knockdown HemEC: SREBP2 Western blot and qPCR of SREBP2 target genes; format: cell-based, human; settings: shSOX18 HemEC
Protocol: shRNA knockdown of SOX18: HemEC (n=3) were transduced with SOX18 shRNA lentivirus (TRCN0000017450, Sigma) or an empty vector control virus (Sigma) followed by puromycin (1 μg/mL) selection for 5 days. Thereafter, cells were maintained in full media without puromycin. Knockdown efficiency was confirmed by qPCR and Western Blot (FIG. 7C-7G, 8A-8B).
as §1

[7] = test system: Hemangioma-derived stem cells (HemSC); settings: earlier work; cited from earlier work
[8] = test system: HemSC; settings: earlier work; cited from earlier work
[9] = test system: zebrafish; settings: in vivo; cited from earlier work
[10] = test system: breast cancer model; settings: in vivo; cited from earlier work
[11] = test system: Hemangioma-derived stem cells (HemSC); experiment: IH xenograft model: patient-derived HemSC in Matrigel injected subcutaneously into nude mice, human blood vessel formation; format: in vivo
Protocol: MilliporeSigma) was prepared in DMSO. […] Dako, Glostrup, 0823) to stain human ECs. Next, sections were incubated with Alexa Fluor 647 chicken anti-mouse IgG (1:200, Invitrogen, Thermo Fisher Scientific) as a secondary antibody (FIG. 9C, 9D).

[12] = test system: LDL-receptor; experiment: LDL-receptor mRNA in HemSC as indirect measure of HMGCR inhibition; format: cell-based, human; settings: 1 μM atorvastatin, 24 hours
[13] = test system: HemSC; settings: atorvastatin 0.1 μM, 6 days
[14] = test system: infantile hemangioma; settings: infants with IH; cited from earlier work

CC(C)NC[C@H](O)COc1cccc2ccccc12 (single isomer, unassigned) [S(−) enantiomer]
β1 and β2-adrenergic receptor antagonism [1]: potent antagonist

CC(C)NC[C@@H](O)COc1ccc(CC(N)=O)cc1 [R(+) atenolol]
SOX18 activity [2]: inhibit

CC(C)NC[C@@H](O)COc1cccc2ccccc12.Cl [R(+) propranolol, R(+) propranolol hydrochloride]
transcripts encoding MVP enzymes (incl. HMGCR, HMGCS1, MVK), RNA-seq [3]: significantly reduced transcripts encoding several enzymes of the MVP | transcripts encoding MVP enzymes (incl. HMGCR, HMGCS1, MVK), RNA-seq ([3]; listed as R+ propranolol): inhibits eight enzymes in the mevalonate pathway | ABCA1 mRNA, qPCR ([3]; 2 hours or 4 days treatment): upregulated | HMGCS1, HMGCR and MVK mRNA, qPCR ([3]; 2 hours or 4 days treatment): Downregulation | downregulation of MVP transcripts ([3]; Day 4 of differentiation): not seen | endogenous cholesterol levels ([4]; 20 μM R+ propranolol after MBCD depletion, hydrochloride): significantly reduced; also recorded: decreased new synthesis of cholesterol | mature 62 kDa SREBP2 [5]: decreased mature 62 kDa SREBP2 | mature 62 kDa SREBP2 ([5]; listed as R+ propranolol): decreased levels of 62 kDa mature SREBP2 | HMGCS1 and HMGCR mRNA levels [6]: did not reduce the mRNA levels | HemSC vasculogenesis in vivo [7]: inhibits | HemSC endothelial differentiation in vitro [8]: inhibits | SOX18 activity [2]: inhibit

O=C(O)c1c(O)cccc1CCc1ccc2ccccc2c1 [Sm4]
endogenous cholesterol levels ([4]; 40 μM Sm4 after MBCD depletion): significantly reduced; also recorded: decreased new synthesis of cholesterol | vascular development [9]: suppresses vascular development in zebrafish | tumor angio- and lymph-angiogenesis [10]: suppresses

CC(C)c1c(C(=O)Nc2ccccc2)c(-c2ccccc2)c(-c2ccc(F)cc2)n1CC[C@@H](O)C[C@@H](O)CC(=O)O [atorvastatin]
human CD31+ blood vessel formation from HemSC ([11]; atorvastatin 1 mg/kg/d, 7 days): significantly blocked the formation of human blood vessels; also recorded: significantly inhibited human CD31+ blood vessel formation | HemSC blood vessel formation in xenograft model ([11]; overall statement, no single dose): inhibited blood vessel formation; also recorded: significantly reduced HemSC blood vessel formation in a dose-dependent manner; also recorded: inhibit IH vessel formation | LDL-R mRNA [12]: significant upregulation of LDL-R mRNA; also recorded: increase LDL receptor mRNA | VEGF-B induced endothelial differentiation (mRNA of CD31 and VE-Cadherin) [13]: significantly inhibited endothelial differentiation; also recorded: inhibited VEGF-B induced endothelial differentiation

CC(C)NCC(O)COc1cccc2ccccc12 (stereo not drawn) [propranolol]
complete response rate [14]: 60% | β1 and β2-adrenergic receptor antagonism [1]: non-selective antagonist

CCC(C)(C)C(=O)O[C@H]1C[C@@H](C)C=C2C=C[C@H](C)[C@H](CC[C@@H]3C[C@@H](O)CC(=O)O3)[C@H]21 [simvastatin]
lowest dose that showed significant reduction in IH vessels ([11]; simvastatin dose response 0.1-10 mg/kg/d): 1 mg/kg/day
